Values of other authors in patent publication US11682473B2, “Skin permeability prediction” (priority 2016, dated 2023).
Like-named read-outs stand apart in the source and are kept apart here.

Details: for log KP, Experimental: Experimental row of Table 16 (in vitro diffusion cells); for log KPexp: uncorrected literature value (permeabilities in cm/h); for log Kp303K: experimental literature values (in vitro diffusion cells), averaged over sources, temperature-corrected to 303 K

SMILES	log KP, Experimental	log KPexp (Texp 25 °C)	log KPexp (Texp 37 °C)	log Kp303K	log KPexp (Texp 31 °C)
CN1CCCC1c1cccnc1 (stereo not shown) [Nicotine, nicotine]	−1.8 cm/h	−1.71	−2.48	−1.8 cm/h	
c1ccccc1 [Benzene, benzene]		−0.80		−0.8 cm/h	−0.95
COc1ccc2c3c1O[C@H]1[C@@H](O)C=C[C@H]4[C@@H](C2)N(C)CC[C@@]341 [Codeine, codeine]	−4.6 cm/h		−4.6	−4.6 cm/h	
